Counter-ions that a name gives are not always drawn.
Columns and labels:
[1] = test system: Male, Fischer 344 rats; assay: Block of Conditioned Avoidance Responding (Rat) test (CAR); conditions: for CAR 5 mg/kg IP Administration (% change CAR) / CAR 15 mg/kg IP Administration (% change CAR): negative number = blockade of CAR
Text: Apparatus: Rat operant chambers, housed within sound attenuated booths, both from Capden Instruments Ltd., were used in this test. The test chamber (8" H x […] D) is constructed of aluminum and plexiglass with floor grid bars of stainless-steel (1/8" O.D.) spaced 9/16" apart. A stainless-steel operation level 1-1/2" wide projects 3/4" into the chamber and is positioned 2-2/8" above the grid floor. The shock stimulus is delivered via the grid floor by a Coulbourn Instruments solid state module. The parameters of the test and the collection of data are controlled automatically.
The rats are trained for two weeks to approach criterion levels in the avoidance test (90% avoidance rate). One-hour training sessions are run at about the same time each day for four or five days a week. The training session consists of 120 trials, with the conditioned stimuli presented every 30 sec. A trial begins with presentation of the conditioned stimuli (a light and a tone). If the rat responds by depressing the operant lever during the 15-second presentation of the conditioned stimuli, the trial is terminated and the animal is credited with a CAR. Failure to respond during the conditioned stimuli causes the presentation of the unconditioned stimulus (UCS), a 0.7 mA shock which is accompanied by a light and tone for five seconds. If the rat depressed the lever within the ten-second period, the shock and trial are terminated and an escape response recorded. If the rat fails to depress the lever during the UCS (shock), the trial is terminated after ten seconds of shock and the absence of a response is scored as a failure to escape. Intertrial level presses have no effect. If a rat performs at the 90% CAR level for two weeks, it is then run twice a week on the test schedule (see below) until baseline performance stabilized.
Trained rats are run in a one-hour session on two consecutive days at the same time and in the same test chamber each day. The sessions consist of 60 trials, one every minute. The conditioned stimuli are presented for 15 sec (maximum) and the unconditioned stimuli five sec (maximum). On Day 1, a vehicle solution is administered to the rats at a time preceding the trial run corresponding to the pretreatment time for the test compound. The route of administration and the volume of vehicle are also matched to that of the test compound.
The percent change in CAR on the drug treatment day compared to vehicle pretreatment day is the key measure. The percent change (% change) in CAR is determined using the following formula: % change CAR = ((% CAR for Day 2/% CAR for Day 1) x 100)-100 [formula]
A negative number indicates a blockade of CAR, whereas a positive number would indicate increased CAR. The test results are reported as the mean % change for the group of rats. Failure to escape, a measure of the general sedative potential of the compound, was calculated for each animal as follows: % Failures = # of Failures to Escape/# of trials [formula]
The % failures, viz., loss of escape, is also reported as a group mean. Failures to escape are monitored closely and a session is terminated if ten failures occurred.
In the Tables and formulas therein, OiPr is isopropoxy, Me is methyl, MeO is methoxy, Et is ethyl, Ph is phenyl, n-Bu is normal butyl, cC6H11 is cyclohexyl, BOC is t-butyloxycarbonyl, Ac is acetyl, and NT is not tested in that partcular test. The escape loss numbers are shown at CAR 5 mg/kg unless otherwise noted.

[2] = target: T1, D-2 (dopamine-2) receptors (Rattus norvegicus, UniProt P61169); assay: biochemical; type: binding, male, Wistar rats; conditions: rat striatum P2 fraction, 3H-spiperone 0.05 nM; read-out: Receptor Binding (Ki nM) D2
T1 construct: The D2 assay employed a P2 fraction from the striatum, the ligand ^3H-spiperone at a concentration of 0.05 nM; from tissue; host or cells: rat striatum, P2 fraction (synaptosomal membranes), male Wistar rats
T1 sequence (P61169 whole entry): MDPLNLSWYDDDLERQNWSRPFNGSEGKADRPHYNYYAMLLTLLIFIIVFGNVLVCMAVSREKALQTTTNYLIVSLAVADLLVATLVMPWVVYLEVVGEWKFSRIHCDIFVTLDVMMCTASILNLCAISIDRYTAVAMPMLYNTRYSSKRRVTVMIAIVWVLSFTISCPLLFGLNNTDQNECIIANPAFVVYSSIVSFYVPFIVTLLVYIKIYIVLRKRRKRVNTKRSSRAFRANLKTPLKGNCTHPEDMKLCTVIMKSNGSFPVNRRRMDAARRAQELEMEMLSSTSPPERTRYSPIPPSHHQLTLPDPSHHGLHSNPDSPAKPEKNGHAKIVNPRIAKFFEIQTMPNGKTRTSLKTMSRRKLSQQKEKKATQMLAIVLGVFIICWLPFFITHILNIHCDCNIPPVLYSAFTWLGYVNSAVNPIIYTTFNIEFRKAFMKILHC
Description: The dopamine D2 binding activity of compounds was determined using a P2 fraction (synaptosomal membranes) prepared from male, Wistar rats.
The data from this assay were analyzed by calculating the percent inhibition of the binding of the tritiated ligands by given concentrations of the test compound. Kl values, where given, were obtained from the logit analysis of concentration-inhibition curves.

[3] = test system: Male Charles-River rats; assay: Rat Glass Bead Test (propulsive motility of the distal colon); type: in vivo; conditions: mean expulsion time of glass bead
Description: The rat glass bead test is used to evaluate the action of compounds on propulsive motility of the distal colon. Male Charles-River rats weighing 50-90 grams are fasted for at least 18 hours in individual cages with water provided. Groups of rats are then dosed by the indicated route at the appropriate pretreatment time. A 4 mm glass bead is then inserted 3.5 cm into the distal colon through the anus using a 4 mm diameter glass rod. Rats are then placed in open top glass jars and observed for 60 minutes. The time for expulsion of the bead is noted for each rat. Rats not expelling the bead after 60 minutes are necropsied and the presence of the bead in the colon confirmed. […] Statistical analysis is done using one way analysis of variance and Fisher's LSD comparison. A probability of less than 0.05 is considered to be statistically significant.

Row | SMILES | (Escape Loss) % failures to escape ([1]; at CAR 5 mg/kg IP) | Ki [2] | (Escape Loss) % failures to escape ([1]; at CAR 15 mg/kg IP) | CAR 5 mg/kg IP Administration (% change CAR) [1] | Glass bead expulsion time ([3]; IP, 1.0 mg/kg) | Glass bead expulsion time ([3]; PO, 10.0 mg/kg) | CAR 15 mg/kg IP Administration (% change CAR) [1]
1 | CC(C)Oc1ccccc1N1CCN(Cc2cccc(C(N)=O)c2)CC1 [Compound 77] | 27% | 46 nM |  | -89% | 12 min |  | 
2 | CC(C)Oc1ccccc1N1CCN(Cc2cccc(C(=O)N3[C@H](C)CCC[C@@H]3C)c2)CC1 [Compound 59, 1-[3-[[4-[2-(1-Methylethoxy)phenyl]-1-piperazinyl]methyl]-benzoyl]-2,6-dimethylpiperidine hydrochloride (3:2)] | 10% | 7.2 nM |  | -72% | 43 min |  | 
3 | CCCCN(C)C(=O)c1cccc(CN2CCN(c3ccccc3OC(C)C)CC2)c1 [Compound 70] | 2% | 15 nM |  | -68% | 14 min |  | 
4 | O=C(c1cccc(CN2CCN(c3ccccc3C(F)(F)F)CC2)c1)N1CCCCC1 [Compound 88] |  | 281 nM | 7% |  | 29 min |  | -60%
5 | CC(C)Oc1cc(F)ccc1N1CCN(Cc2cccc(C(=O)N3CCCCC3)c2)CC1 [Compound 78] | 4% |  |  | -82% | 28 min |  | 
6 | CC(C)Oc1ccccc1N1CCN(Cc2cccc(C(=O)N3CCCCC3=O)c2)CC1.O=C(O)/C=C/C(=O)O [Compound 66, 1-[3-[[4-[2-(1-Methylethoxy)phenyl]-1-piperazinyl]methyl]benzoyl]-2-piperidone Fumarate] |  |  | 0% |  | 18 min |  | -92%
7 | CCCc1ccccc1N1CCN(Cc2cccc(C(=O)N3CCCCC3)c2)CC1 [Compound 81] |  |  | 0% |  | 22 min |  | -8%
8 | CC(C)Oc1ccccc1N1CCN(Cc2cccc(C(=O)NC3CCCCC3)c2)CC1 [Compound 71] |  |  | 0% |  | 23 min |  | -86%
9 | O=C(c1cccc(CN2CCN(c3cccc4ccccc34)CC2)c1)N1CCCCC1 [Compound 35] |  |  | 0% |  |  | 19 min | -19%

Continued, in another order:

Row | (Escape Loss) % failures to escape ([1]; at CAR 5 mg/kg IP) | Ki [2] | (Escape Loss) % failures to escape ([1]; at CAR 15 mg/kg IP) | SMILES | CAR 5 mg/kg IP Administration (% change CAR) [1] | Glass bead expulsion time ([3]; IP, 1.0 mg/kg) | Glass bead expulsion time ([3]; PO, 10.0 mg/kg) | CAR 15 mg/kg IP Administration (% change CAR) [1]
10 | 2% | 45 nM |  | CC(C)Oc1ccccc1N1CCN(Cc2cccc(S(=O)(=O)N3CCCC(C)(C)C3)c2)CC1 [Compound 104] | -4% |  | 50 min | 
11 |  | ~100 nM |  | CC(C)Oc1ccccc1N1CCN(Cc2ccc(C(=O)N3CCCCC3)cc2)CC1.Cl.Cl [Compound 103, 1-[4-[[4-[2-(1-Methylethoxy)phenyl]-1-piperazinyl]methyl]benzoyl]piperidine Dihydrochloride] |  | 43 min |  | 
12 |  | 11 nM |  | CC(C)Oc1ccccc1N1CCN(Cc2ccccc2C(=O)N2CCCCCC2)CC1 [Compound 113] |  |  | 15 min | 
13 |  | 16 nM |  | CC(C)Oc1ccccc1N1CCN(Cc2ccccc2C(=O)N(C)C2CCCC2)CC1 [Compound 112] |  | 11 min |  | 
14 |  |  | 0% | O=C(c1cccc(CN2CCN(c3ccccc3Cl)CC2)c1)N1CCCCC1 [Compound 89] |  | 16 min |  | -68%

Reference: patent EP0563345B1, “NOVEL 4-ARYLPIPERAZINES AND 4-ARYLPIPERIDINES” (MCNEILAB, INC., priority 1991, dated 1993)
